Columns and labels:
[1] = CSF concentrations after a single oral dose of FTY720, satellite rats; format: in vivo, rat; settings: FTY720 3.0 or 10 mg/kg single oral dose, 4, 8, 24, 72-hrs post-dose
Procedure: Prior to longer-term hypertension studies with FTY720 an acute, single oral-dose study was performed to define the lower and upper limits of a pharmacologically-active dose with respect to acute hemodynamic effects. […] Values of both the parent and metabolite were detectable through at least 72-hrs post-dose. Tissue concentrations in the brain, skeletal muscle, and CSF were also determined in a separate group of satellite rats (please see Supplementary Figure, S2 ). Relative to the vehicle control group, FTY720 elicited dose-dependent and sustained increases in mean arterial pressure after a single oral dose, an effect that reached statistical significance in the 3 and 10 mg/kg dose groups (to 13.5±1.8 and 19.9±2.8 mmHg above baseline, respectively, based on a 24-hr mean values on day 1 vs. 3.6±1.5 mmHg in vehicle controls, Figure 4 , A). […] The acute hemodynamic effects of a single oral dose of BAF312 (0.3, 3.0, and 30 mg/kg) were also quantified.
A blood sample or tissues were harvested from satellite rats at 4, 8, 24, and 72-hrs post-dose. […] (TIF) Click here for additional data file.

[2] = Plasma concentrations after a single oral dose in rats; format: in vivo; settings: rat; for Plasma concentration: mean±SEM
Procedure: Mean arterial pressure was assessed in conscious, freely moving male Sprague Dawley rats (n = 6–8/group; Charles River) instrumented with telemetry transmitters (DSI-Ponemah) and housed in metabolism cages as previously described, [26]. Tested compounds were solubilized in a 0.5% Methylcellulose/0.015% Tween 80 vehicle that was also dosed alone (p.o./QD, 5 mL/kg) as a control in the study. FTY720 was administered p.o. at 0.3, 1.0, 3.0, 10.0 mg/kg p.o. as a single dose or p.o./QD at 0.5, 1.5, and 5.0 mg/kg in a chronic study. BAF312 was administered p.o/QD at 0.3, 3.0, and 30 mg/kg as a single dose and in a chronic study. Mean arterial pressure and heart rate are shown as 1-hr and/or 24-hr mean values±SEM as described in the results. Blood samples in satellite rats were withdrawn at various timepoints as described in the results for analysis of plasma concentrations of the parent compound and, in the case of FTY720, also the phosphorylated metabolite, (S)-FTY720-P. Statistical analysis for the single-dose acute studies was based on one-way ANOVA to compare the treatment groups vs. vehicle for each time period after dosing (0–24 hrs, 24–48 hrs, and 48–72 hrs); statistical significance (p<0.05) was detected by Dunnett’s post-hoc test to compare treatment with vehicle controls. The statistical analysis in the chronic studies were based on one-way ANOVA with repeated measures to compare the treatment arms; statistical significance (p<0.05) was detected by Dunnett’s post-hoc test to compare treatment with vehicle controls.

## CCCCCCCCc1ccc(CC[C@](N)(CO)COP(=O)(O)O)cc1 [FTY720-P]
[1]
  concentration in the CSF: No compound was detectable
[2]; FTY720 0.3 mg/kg single oral dose
  Plasma concentration at Tmax: 83 ± 3 nM
[2]; FTY720 0.3 mg/kg single oral dose, 4 hr post-dose
  Plasma concentration: 66 ± 3 nM
[2]; FTY720 0.3 mg/kg single oral dose, 8 hr post-dose
  Plasma concentration: 83 ± 3 nM
[2]; FTY720 0.3 mg/kg single oral dose, 24 hr post-dose
  Plasma concentration: 43 ± 7 nM
[2]; FTY720 0.3 mg/kg single oral dose, 48 hr post-dose
  Plasma concentration: 29 ± 3 nM
[2]; FTY720 0.3 mg/kg single oral dose, 72 hr post-dose
  Plasma concentration: 4 ± 4 nM
[2]; FTY720 1.0 mg/kg single oral dose
  Plasma concentration at Tmax: 263 ± 13 nM
[2]; FTY720 1.0 mg/kg single oral dose, 4 hr post-dose
  Plasma concentration: 172 ± 16 nM
[2]; FTY720 1.0 mg/kg single oral dose, 8 hr post-dose
  Plasma concentration: 263 ± 13 nM
[2]; FTY720 1.0 mg/kg single oral dose, 24 hr post-dose
  Plasma concentration: 113 ± 2 nM
[2]; FTY720 1.0 mg/kg single oral dose, 48 hr post-dose
  Plasma concentration: 81 ± 11 nM
[2]; FTY720 1.0 mg/kg single oral dose, 72 hr post-dose
  Plasma concentration: 26 ± 4 nM
[2]; FTY720 3.0 mg/kg single oral dose
  Plasma concentration at Tmax: 360 ± 55 nM
[2]; FTY720 3.0 mg/kg single oral dose, 4 hr post-dose
  Plasma concentration: 285 ± 29 nM
[2]; FTY720 3.0 mg/kg single oral dose, 8 hr post-dose
  Plasma concentration: 339 ± 36 nM
[2]; FTY720 3.0 mg/kg single oral dose, 24 hr post-dose
  Plasma concentration: 360 ± 55 nM
[2]; FTY720 3.0 mg/kg single oral dose, 48 hr post-dose
  Plasma concentration: 152 ± 14 nM
[2]; FTY720 3.0 mg/kg single oral dose, 72 hr post-dose
  Plasma concentration: 165 ± 2 nM
[2]; FTY720 10 mg/kg single oral dose
  Plasma concentration at Tmax: 1090 ± 124 nM
[2]; FTY720 10.0 mg/kg single oral dose, 4 hr post-dose
  Plasma concentration: 559 ± 159 nM
[2]; FTY720 10.0 mg/kg single oral dose, 8 hr post-dose
  Plasma concentration: 1145 ± 505 nM
[2]; FTY720 10.0 mg/kg single oral dose, 24 hr post-dose
  Plasma concentration: 1090 ± 124 nM
[2]; FTY720 10.0 mg/kg single oral dose, 48 hr post-dose
  Plasma concentration: 455 ± 57 nM
[2]; FTY720 10.0 mg/kg single oral dose, 72 hr post-dose
  Plasma concentration: 629 ± 157 nM
[2]; FTY720 single oral dose
  time post-dose through which plasma values were detectable: at least 72 hrs

Reference: paper PMC3532212 (PLoS ONE, 2012)
